Experimental data published in patent US7230132B2, “Aryl N-cyanoguanidines and methods related thereto” (Migenix Corp., priority 2001, dated 2007).
pEC50: −log10 of the molar value.

Tests used:
Format in all cases: cell-based
[1] = tested on: TC28 cells; experiment: GAG release from TC28 chondrocytes in polyHEME plates (DMB dye binding assay); conditions: for % Decrease in GAG Release, IL-1b / % Decrease in GAG Release, NOC-12 / % Decrease in GAG Release, SIN-1: TC28 cells in polyHEME plates, 1 μM compound; for % Decrease in GAG Release, IL-1b: trigger IL-1 10 ng/ml; for % Decrease in GAG Release, NOC-12: trigger NOC-12 25 μM; for % Decrease in GAG Release, SIN-1: trigger SIN-1 10 μM; for pEC50: approximate, prevention of GAG release, polyHEME plates, 1 h pretreatment, 72 h
Protocol: Immortalized TC28 (a.k.a. “[…]”) juvenile rib chondrocytes were provided by Dr. Mary Goldring (Harvard Medical School, Boston, Mass.). The TC28 cells were maintained in monolayer culture in DMEM/Ham's F12 (1:1) and supplemented with 10% FCS, 1% L-glutamine, 100 units/ml Penicillin and […] Streptomycin (Omega Scientific, Tarzana, Ca) and cultured at 37° C. with 5% CO2. Additionally, to further study chondrocytic cells in a more physiologic nonadherent state, in some experiments, TC28 cells were transferred to 6 well plates that had been previously coated for 18 hours at 22° C. with 10% (v/v) in 95% ethanol solution of the cell adhesion inhibitor poly 2-hydroxyethyl methacrylate (polyHEME), followed by two washes in PBS. Complete DMEM/Ham's F12 medium was then added to the wells and the cells studied for up to 72 hours in culture (Folkman J. and Moscona A: Role of cell shape in growth control, Nature 273:345-349, 1978; Reginato A, Iozzo R, Jimenez S: Formation of Nodular Structures Resembling Mature Articular Cartilage in Long-Term Primary Cultures of Human Fetal Epiphyseal Chondrocytes on a Hydrogel Substrate, Arthritis Rheum 37: 1338-1349, 1994). Type II collagen and aggrecan expression were confirmed using RT-PCR, which verified maintenance of chondrocyte phenotype. The chondrocyte protective effects of representative compounds were screened in vitro. The agonists included a donor of nitric oxide (NOC-12), a donor of peroxynitrite (SIN-1), and human recombinant IL-1beta. […] Cytotoxicity was studied using standard LDH release assay, and chondrocyte intracellular ATP was measured by standard luciferase assay. The enhanced release from chondrocytes of glycosaminoglycans (GAG) is a central feature of osteoarthritic chondrocytes, and is known to be stimulated potently by IL-1, which, like NO and peroxynitrite is a major pathogenic factor in osteoarthritis. […] The digestion of the interfering proteins accomplished in this manner allowed the GAG release to be more readily detectable, and the GAG release was quantified by the standard dimethylene blue (DMB) dye binding colorimetric assay. In brief, the cell extract digested from above was combined with 46 μM DMB, 40 mM glycine and 40 mM NaCl (pH 3.0) and immediately read at 525 nm and compared again at a standard curve generated with samples of 1-50 μg/ml chondroitin sulfate (Farndale R, Buttle D, Barrett A: Improved quantitation and discrimination of sulphated glycosaminoglycans by us of dimethylmethylene blue, Biochimica et Biophysica Acta 883: 173-177, 1986; SztrolovicsR, White R, Poole R, Mort J, Roughley P: Resistance of small leucine-rich repeat proteoglycans to proteolytic degradation during interleukin-1 stimulated cartilage catabolism, Biochem J. 339: 571-577, 1999). Collagen production was measured by following ^3H proline incorporation as described in Johnson et al., Arthritis Rheum. 43:11560-70, 2000. […] In these experiments, TC28 cells in polyHEME coated plates were pre-treated for 1 hr followed by exposure to trigger for 72 hrs in the present of Compound (1).

[2] = tested on: TC28 cells; experiment: Oxygen consumption / mitochondrial respiration in TC28 monolayer culture; conditions: 500 μM SIN-1 for 4 hr +/- 10 μM compound, FIG. 1
Protocol: In this experiment, TC28 cells were treated with 500 μM SIN-1 for 4 hr+/−10 μM Compound (1): State 3/4—basal respiration rate with no substrate addition; State 4—respiration rate in present of […] oligomycin; State 3U—maximal state 3 uncoupled respiration rate due to addition of the uncoupler CCCP.

[3] = tested on: TC28 cells; experiment: ATP assay (luciferase); conditions: approximate, prevention of ATP depletion, 1 h pretreatment, 24 h exposure
Protocol: 5×10^5 TC28 cells were plated in a 60 mm dish and allowed to adhere overnight. The cells were then washed with PBS and media was changed to 1% FCS containing media. Compound (1) was added for 1 hr pretreatment of the cells at 37° C. The media was removed and fresh compound+/− the toxic stimuli were added and the cells incubated for 24 hrs at 37° C. The cells were gently scraped into PBS and washed and then the pellets were snap frozen in dry ice. The cells were then extracted in 0.4 N perchloric acid and incubated on ice for 15 min. The cells were centrifuged at 14,000 rpm for 15 min and the supernatant removed. 24% (by volume) of 2.2 M KHCO3 was added to neutralize the solution and the precipitate was pelleted by centrifugation. This supernatant was mixed with the ATP assay mix from the Sigma ATP Luciferase kit and the reaction was counted for 15 sec (with an initial 5 sec delay) in triplicate. Counts were corrected for total DNA in the cell pellet (see Table 3).
(§1) The results of the above Cell Viability and ATP Assays are presented in Table 3, which provides the approximate EC50 values (μM) for prevention of SIN-1 and NOC-12 mediated cell death and ATP depletion by Compound (1). In these assays, TC28 cells were pre-treated for one hour followed by 24-hour exposure to trigger in the presence of Compound (1).

[4] = tested on: TC28 cells; experiment: Collagen synthesis (3H proline incorporation); conditions: approximate, prevention of inhibition of collagen synthesis, polyHEME plates, 1 h pretreatment, 72 h
Protocol: Collagen production was measured by following ^3H proline incorporation as described in Johnson et al., Arthritis Rheum. 43:11560–70, 2000. The results are presented in Table 4, which provides the approximate EC50 values (μM) for prevention of SIN-1, NOC-12 and IL-1 mediated GAG release (via Example 3) and inhibition of collagen synthesis (via Johnson et al.) in chondrocytes by Compound (1). In these experiments, TC28 cells in polyHEME coated plates were pre-treated for 1 hr followed by exposure to trigger for 72 hrs in the present of Compound (1).

[5] = tested on: bovine cartilage slices; experiment: Bovine cartilage organ culture, IL-1-mediated GAG release; conditions: approximate, IL-1 10 ng/ml, 6 h pretreatment, 24 h, read-out: EC50 GAG Release, IL-1 Trigger
Protocol: (§2) Mature bovine knees were obtained and cartilage from the femoral condyles and patellar groove was removed in full thickness slices. (1–3 mm). Circular cores (6–7 mm in diameter) were punched out of the tissue. The cores were washed twice with media (1% FCS, 1% P/S, 1% glutamine containing DMEM high glucose) and then placed in 96 wells plates. The slices were incubated in media (as above) at 37° C. for 48 hrs to allow for recovery from the isolation process. After the recovery period, the media was removed and fresh media with Compound (1) was added to the slices for a pretreatment period of 6 hrs. Then the media was removed and fresh Compound (1)+/− IL-1 (at 10 ng/ml) was added and incubated at 37° C. for 24 hrs. The conditioned media was collected and the GAG and NO release were analyzed. Finally the slices were weighed to correct for slight variations in size or thickness. The results of this experiment are presented in Table 5, which provides the approximate EC50 values (μM) for prevention of IL-1-mediated GAG and NO release in bovine cartilage slices by Compound (1).

[6] = tested on: bovine cartilage slices; experiment: Bovine cartilage organ culture, IL-1-mediated NO release; conditions: approximate, IL-1 10 ng/ml, 6 h pretreatment, 24 h, read-out: EC50 NO Release, IL-1 Trigger
Protocol: as §2

[7] = tested on: TC28 cells; experiment: Cell viability assay (LDH release, CytoTox 96); conditions: approximate, prevention of cell death, 1 h pretreatment, 24 h exposure
Protocol: 1×10^5 TC28 cells (DMEM/F12 media with 10% FCS, 1% glutamine, 1% P/S) were plated each well in a 96 well plate and allowed to adhere overnight. The cells were washed once with PBS and media changed to contain only 1% FCS. Compound (1) at various concentrations was added to the cells for a pretreatment of 1 hr. The media was removed and fresh compound+/− the toxic stimuli were added. The cells were then incubated for 24 hrs at 37° C. Following the incubation the media was collected and used for analysis in the CytTox 96 Nonradioactive Cytotoxicity Assay (Promega, Madison, Wis.). Briefly the LDH release from the dead cells was quantified in a 30 min enzymatic reaction that results in the conversion of a tetrazolium […] to a red formazan product. The results were then expressed as the percent of cells dead relative to the release of LDH by the control cells.
as §1

COc1ccc(NC(N)=NC#N)cc1Cl [(2)]
% Decrease in GAG Release, IL-1b [1]: 40.9% | % Decrease in GAG Release, NOC-12 [1]: 50.1% | % Decrease in GAG Release, SIN-1 [1]: 23.6%

Cc1cc(C)cc(NC(N)=NC#N)c1 [(7)]
% Decrease in GAG Release, IL-1b [1]: 56.6% | % Decrease in GAG Release, NOC-12 [1]: 46.2% | % Decrease in GAG Release, SIN-1 [1]: 42.3%

N#CN=C(N)Nc1ccc(N2CCOCC2)cc1 [(3)]
% Decrease in GAG Release, IL-1b [1]: 29.1% | % Decrease in GAG Release, NOC-12 [1]: 28.0% | % Decrease in GAG Release, SIN-1 [1]: 21.9%

COc1cc(NC(N)=NC#N)cc(OC)c1OC [(4)]
% Decrease in GAG Release, IL-1b [1]: 1.5% | % Decrease in GAG Release, NOC-12 [1]: 17.2% | % Decrease in GAG Release, SIN-1 [1]: 11.3%

Cc1cc(O)ccc1NC(N)=NC#N [Compound (1)]
SIN-1-mediated inhibition of mitochondrial respiration [2]: blocked SIN-1-mediated inhibition of mitochondrial respiration | pEC50 ([3]; NOC-12 challenge 250 μM, read-out: EC50 ATP Depletion, trigger Noc12): ~7.00 | pEC50 ([3]; SIN-1 challenge 100 μM, read-out: EC50 ATP Depletion, trigger Sin-1): ~7.00 | pEC50 ([4]; IL-1 challenge 10 ng/ml, read-out: EC50 Collagen, trigger IL-1): ~6.00 | pEC50 ([4]; NOC-12 challenge 25 μM, read-out: EC50 Collagen, trigger Noc12): ~6.00 | pEC50 ([4]; SIN-1 challenge 10 μM, read-out: EC50 Collagen, trigger Sin-1): ~6.00 | pEC50 [5]: ~5.00 | pEC50 [6]: ~5.00 | % Decrease in GAG Release, IL-1b [1]: 36.8% | % Decrease in GAG Release, NOC-12 [1]: 27.4% | % Decrease in GAG Release, SIN-1 [1]: 47.7% | pEC50 ([1]; IL-1 challenge 10 ng/ml, read-out: EC50 GAG Release, trigger IL-1): ~7.00 | pEC50 ([1]; NOC-12 challenge 25 μM, read-out: EC50 GAG Release, trigger Noc12): ~7.00 | pEC50 ([1]; SIN-1 challenge 10 μM, read-out: EC50 GAG Release, trigger Sin-1): ~7.00 | pEC50 ([7]; NOC-12 challenge 250 μM, read-out: EC50 Cell Viability, trigger Noc12): ~8.00 | pEC50 ([7]; SIN-1 challenge 100 μM, read-out: EC50 Cell Viability, trigger Sin-1): ~8.00

Cc1cc(Cl)ccc1NC(N)=NC#N [(8)]
% Decrease in GAG Release, IL-1b [1]: 43.8% | % Decrease in GAG Release, NOC-12 [1]: 32.3% | % Decrease in GAG Release, SIN-1 [1]: 55.2%

N#CN=C(N)Nc1cccc(C(F)(F)F)c1 [(5)]
% Decrease in GAG Release, IL-1b [1]: 30.7% | % Decrease in GAG Release, NOC-12 [1]: 14.2% | % Decrease in GAG Release, SIN-1 [1]: 35.0%

Cc1ccc(NC(N)=NC#N)c(C)c1 [(6)]
% Decrease in GAG Release, IL-1b [1]: 2.4% | % Decrease in GAG Release, NOC-12 [1]: 11.0% | % Decrease in GAG Release, SIN-1 [1]: 1.6%
